According to US11696913B2, “Prolonged ectoparasite-controlling agent for animal” (MITSUI CHEMICALS AGRO, INC., priority 2017, dated 2023):

How the values were obtained:
[1] = tested on: Rhipicephalus (Boophilus) microplus; experiment: In vitro injection test with Rhipicephalus (Boophilus) microplus (BOOPMI Inj); details: 168 h, laid fertile eggs after 7 days, read-out: acaricidal activity; for pest or weed control at 0.00016 mg: dose 0.16 μg/animal injected; for pest or weed control at 0.0008 mg: dose 0.8 μg/animal injected; for pest or weed control at 32 ng: dose 0.032 μg/animal injected; for pest or weed control at 6.4 ng: dose 0.0064 μg/animal injected
Procedure, shortened: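 Test substance in DMSO; 1 μl injected into abdomen of each of 5 engorged adult female ticks, then held at 28° C., 85% rel. hum. Activity scored after 7 days from laying of fertile eggs: 100% = no eggs or all infertile, 0% = all eggs fertile.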

[2] = tested on: Ixodes ricinus; experiment: In vitro contact test with adult hard ticks (Ixodes ricinus); details: read-out: acaricidal activity; for pest or weed control at 0.2 µg/cm2, 0.2 µg/cm2: dose 0.2 μg/cm^2, 48 h; for pest or weed control at 1 µg/cm2, 1 µg/cm2: dose 1 μg/cm^2, 48 h; for pest or weed control at 5 µg/cm2, 5 µg/cm2: dose 5 μg/cm^2, 48 h
Procedure, shortened: (§1)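 Adult R. sanguineus, I. ricinus, D. variabilis or A. americanum nymphs exposed in glass vials coated with compound from acetone (900 ppm gives 5 μg/cm^2). Held 48 h at room temperature (R. sanguineus) or 21° C., 85% rel. hum.; then heated at 45-50° C. ≤5 min, motionless or uncoordinated ticks scored dead/moribund.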

[3] = tested on: Plutella xylostella; experiment: Insecticidal testing against diamondback moth; assay type: in vivo; details: foliar, 144 h, concentration 100 ppm, cabbage leaf dip, third-stage larvae, after 6 days, read-out: pesticidal rate
Source text: Insecticidal Testing Against Diamondback Moth (Plutella xylostella)

[4] = tested on: Dermacentor variabilis; experiment: In vitro contact test with adult hard ticks (Dermacentor variabilis); details: read-out: acaricidal activity; for pest or weed control at 0.2 µg/cm2, 0.2 µg/cm2: dose 0.2 μg/cm^2, 48 h; for pest or weed control at 1 µg/cm2, 1 µg/cm2: dose 1 μg/cm^2, 48 h
Procedure, shortened: as §1

[5] = tested on: Ctenocephalides felis; experiment: In vitro contact test with fleas; details: read-out: insecticidal activity; for pest or weed control at 0.04 µg/cm2, 0.04 µg/cm2: dose 0.04 μg/cm^2, dead or moribund fleas after 48 h; for pest or weed control at 0.2 µg/cm2, 0.2 µg/cm2: dose 0.2 μg/cm^2, dead or moribund fleas after 48 h; for pest or weed control at 1 µg/cm2, 1 µg/cm2: dose 1 μg/cm^2, dead or moribund fleas after 48 h
Procedure, shortened: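 Adult male and female cat fleas (5-10 per tube) placed in glass tubes coated with compound from acetone solution (900 ppm gives 5 μg/cm^2), kept at room temperature and ambient humidity. After 48 h, motionless or uncoordinated fleas scored dead or moribund; activity expressed as % dead or moribund.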

[6] = tested on: Spodoptera litura; experiment: Insecticidal testing against common cutworm; assay type: in vivo; details: foliar, 144 h, concentration 100 ppm, cabbage leaf dip, second-stage larvae, after 6 days, read-out: pesticidal rate
Source text: Insecticidal Testing Against Common Cutworm (Spodoptera litura)

[7] = tested on: Amblyomma americanum; experiment: In vitro contact test with hard ticks (Amblyomma americanum nymphs); details: read-out: acaricidal activity; for pest or weed control at 0.2 µg/cm2, 0.2 µg/cm2: dose 0.2 μg/cm^2, 48 h; for pest or weed control at 1 µg/cm2, 1 µg/cm2: dose 1 μg/cm^2, 48 h; for pest or weed control at 0.04 µg/cm2, 0.04 µg/cm2: dose 0.04 μg/cm^2, 48 h
Procedure, shortened: as §1

[8] = tested on: Rhipicephalus sanguineus; experiment: In vitro contact test with adult hard ticks (Rhipicephalus sanguineus); details: read-out: acaricidal activity; for pest or weed control at 0.2 µg/cm2, 0.2 µg/cm2: dose 0.2 μg/cm^2, 48 h; for pest or weed control at 1 µg/cm2, 1 µg/cm2: dose 1 μg/cm^2, 48 h; for pest or weed control at 0.04 µg/cm2, 0.04 µg/cm2: dose 0.04 μg/cm^2, 48 h
Procedure, shortened: as §1

[9] = tested on: Laodelphax striatellus; experiment: Insecticidal testing against small brown planthopper; assay type: in vivo; details: 144 h, concentration 100 ppm, sprayed rice seedlings, after 6 days, read-out: pesticidal rate
Procedure, shortened: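 Acetone solution of compound at a set concentration sprayed onto rice seedlings, air-dried, then exposed to 10 planthoppers (one group). Held at 25° C; survival rate recorded after 6 days.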

[10] = tested on: Ctenocephalides felis; experiment: Ctenocephalides felis in-vitro feeding test with fleas (CTECFE oral); details: 48 hours, read-out: insecticidal feeding activity; for pest or weed control at 0.16 ppm: dose 0.16 ppm in citrated cattle blood; for pest or weed control at 0.8 ppm: dose 0.8 ppm in citrated cattle blood; for pest or weed control at 4 ppm: dose 4 ppm in citrated cattle blood; for pest or weed control at 0.032 ppm: dose 0.032 ppm in citrated cattle blood; for pest or weed control at 0.0064 ppm: dose 0.0064 ppm in citrated cattle blood
Procedure, shortened: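 About 20 unfed adult cat fleas fed through parafilm on citrated cattle blood containing test substance (DMSO solution diluted in blood), held at about 37° C. Kill rate scored after 48 hours, 100% meaning all fleas dead.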

SMILES | pest or weed control at 0.00016 mg [1] [%] | pest or weed control at 0.0008 mg [1] [%] | pest or weed control at 0.2 µg/cm2, 0.2 µg/cm2 [2] [%] | pest or weed control at 1 µg/cm2, 1 µg/cm2 [2] [%] | pest or weed control at 5 µg/cm2, 5 µg/cm2 [2] [%] | pest or weed control at 100 ppm [3] [%] | pest or weed control at 0.2 µg/cm2, 0.2 µg/cm2 [4] [%] | pest or weed control at 1 µg/cm2, 1 µg/cm2 [4] [%] | pest or weed control at 0.2 µg/cm2, 0.2 µg/cm2 [5] [%] | pest or weed control at 1 µg/cm2, 1 µg/cm2 [5] [%] | pest or weed control at 100 ppm [6] [%] | pest or weed control at 0.2 µg/cm2, 0.2 µg/cm2 [7] [%] | pest or weed control at 1 µg/cm2, 1 µg/cm2 [7] [%] | pest or weed control at 1 µg/cm2, 1 µg/cm2 [8] [%] | pest or weed control at 100 ppm [9] [%] | pest or weed control at 0.16 ppm [10] [%] | pest or weed control at 0.8 ppm [10] [%] | pest or weed control at 4 ppm [10] [%] | pest or weed control at 32 ng [1] [%] | pest or weed control at 0.032 ppm [10] [%] | also measured
O=C(Nc1cccc(C(=O)Nc2c(Br)cc(C(F)(C(F)(F)F)C(F)(F)F)cc2OC(F)(F)F)c1F)c1ccc(F)c(F)c1 [Compound 101] | 100 | 100 | 90 | 90 | 90 | ≥ 70 | 90 | 90 | 95 | 95 | ≥ 70 | 90 | 90 | 90 | ≥ 70 | 95 | 95 | 95 | – | – | pest or weed control at 0.04 µg/cm2, 0.04 µg/cm2 [5]: 95%; pest or weed control at 0.2 µg/cm2, 0.2 µg/cm2 [8]: 90%
O=C(Nc1cccc(C(=O)Nc2c(I)cc(C(F)(C(F)(F)F)C(F)(F)C(F)(F)F)cc2C(F)(F)F)c1F)c1ccc(C(F)(F)F)nc1 (stereo not shown) [Compound 102] | 100 | 100 | – | – | 90 | ≥ 70 | – | 90 | 95 | 95 | ≥ 70 | 90 | 90 | 90 | ≥ 70 | 95 | 95 | 95 | 100 | 95 | pest or weed control at 0.2 µg/cm2, 0.2 µg/cm2 [8]: 90%
CN(C(=O)c1ccc(F)cc1)c1cccc(C(=O)Nc2c(Br)cc(C(F)(C(F)(F)F)C(F)(F)C(F)(F)F)cc2OC(F)F)c1F (stereo not shown) [Compound 105] | 100 | 100 | – | 90 | 90 | ≥ 70 | 90 | 90 | 95 | 95 | ≥ 70 | – | 90 | 90 | ≥ 70 | 95 | 95 | 95 | 100 | 95 | pest or weed control at 0.04 µg/cm2, 0.04 µg/cm2 [5]: 95%; pest or weed control at 0.04 µg/cm2, 0.04 µg/cm2 [7]: 90%
O=C(Nc1cccc(C(=O)Nc2c(Br)cc(C(F)(C(F)(F)F)C(F)(F)C(F)(F)F)cc2OC(F)F)c1F)c1ccc(F)cc1 (stereo not shown) [Compound 106] | 100 | 100 | 90 | 90 | 90 | ≥ 70 | 90 | 90 | 95 | 95 | ≥ 70 | 90 | 90 | 90 | ≥ 70 | 95 | 95 | 95 | 100 | 95 | pest or weed control at 6.4 ng [1]: 100%; pest or weed control at 0.04 µg/cm2, 0.04 µg/cm2 ([4]; dose 0.04 μg/cm^2, 48 h): 90%; pest or weed control at 0.04 µg/cm2, 0.04 µg/cm2 [5]: 95%; pest or weed control at 0.04 µg/cm2, 0.04 µg/cm2 [7]: 90%; pest or weed control at 0.04 µg/cm2, 0.04 µg/cm2 [8]: 90%; pest or weed control at 0.2 µg/cm2, 0.2 µg/cm2 [8]: 90%; pest or weed control at 0.0064 ppm [10]: 95%
O=C(Nc1cccc(C(=O)Nc2c(I)cc(C(F)(C(F)(F)F)C(F)(F)F)cc2OC(F)F)c1F)c1ccc(C(F)(F)F)nc1 [Compound 108] | 100 | 100 | 90 | 90 | 90 | ≥ 70 | 90 | 90 | 95 | 95 | ≥ 70 | 90 | 90 | 90 | ≥ 70 | 95 | 95 | 95 | 100 | 95 | pest or weed control at 0.04 µg/cm2, 0.04 µg/cm2 [8]: 90%; pest or weed control at 0.2 µg/cm2, 0.2 µg/cm2 [8]: 90%; pest or weed control at 0.0064 ppm [10]: 95%
CN(C(=O)c1ccc(F)c(F)c1)c1cccc(C(=O)Nc2c(I)cc(C(F)(C(F)(F)F)C(F)(F)F)cc2OC(F)F)c1F [Compound 109] | 100 | 100 | 90 | 90 | 90 | ≥ 70 | 90 | 90 | 95 | 95 | ≥ 70 | – | 90 | – | ≥ 70 | 95 | 95 | 95 | 100 | 95 | pest or weed control at 6.4 ng [1]: 100%; pest or weed control at 0.04 µg/cm2, 0.04 µg/cm2 [5]: 95%; pest or weed control at 0.04 µg/cm2, 0.04 µg/cm2 [8]: 90%
O=C(Nc1cccc(C(=O)Nc2c(I)cc(C(F)(C(F)(F)F)C(F)(F)F)cc2OC(F)F)c1F)c1ccc(F)c(F)c1 [Compound 110] | 100 | 100 | 90 | 90 | 90 | ≥ 70 | 90 | 90 | 95 | 95 | ≥ 70 | 90 | 90 | 90 | ≥ 70 | 95 | 95 | 95 | 100 | 95 | pest or weed control at 0.04 µg/cm2, 0.04 µg/cm2 [7]: 90%; pest or weed control at 0.2 µg/cm2, 0.2 µg/cm2 [8]: 90%
